{
  "source": "patent US8450305B2",
  "about": "“Macrocyclic compounds useful as inhibitors of kinases and HSP90” (Universite de Strasbourg, priority 2006, dated 2013)",
  "key": {"HCC1954 tumor cells": {"system": "HCC1954 tumor cells", "assay": "Cytotoxicity, MTS assay, HCC1954", "format": "cell-based", "conditions": "Homo sapiens, 72 hours", "procedure": "(§1) Tumor cells were grown as adherent monolayers at 37° C. in a humidified atmosphere (5% CO2, 95% air). The culture medium was RPMI 1640 containing 2 mM L-glutamine (Ref BE12-702F, Cambrex, Verviers, Belgium) and supplemented with 10% fetal bovine serum (Ref DE14-801E, Cambrex). For experimental use, the adherent tumour cells were detached from the culture flask by a 5-minute treatment with trypsin-versene (Ref O2-007E, Cambrex), diluted in Hanks' medium without calcium or magnesium (Ref BE10-543F, Cambrex) and neutralized by addition of complete culture medium. Before use, cells were counted in a hemocytometer and their viability were assessed by 0.25% trypan blue exclusion. Mycoplasma detection was performed using the MycoAlert® Mycoplasma Detection Kit (Ref LT07-318, Cambrex) in accordance with the manufacturer instructions. The MycoAlert®Assay is a selective biochemical test that exploits the activity of mycoplasmal enzymes. The viable mycoplasma are lysed and the enzymes react with the MycoAlert® substrate catalyzing the conversion of ADP to ATP. By measuring the level of ATP in a sample both before and after the addition of the MycoAlert® substrate a ratio can be obtained which is indicative of the presence or absence of mycoplasma. The mycoplasma test was assayed in duplicate from the culture supernatants of the cell lines and compared to negative and positive controls (MycoAlert® Assay Control Set, Ref LT07-518, Cambrex) (Internal Standard Operating Procedure No TEC-007/002). Both HCC1954 and SK-BR-3 tumour cells (5,000 cells per well) were plated in 96-well flat-bottom microtitration plates (Ref 167008, Nunc, Dutscher, Brumath, France) and incubated at 37° C. for 24 hours before treatment in 190 μl of drug-free culture medium supplemented with 10% FBS. Both HCC1954 and SK-BR-3 tumour cell lines were incubated for 72 hours with […], in ¼ dilution steps, of the test substances (ranging from […]) to be tested as well as paclitaxel (ranging from 10^−7 to 10^−12 M). The cells (190 μl) will be incubated in a 200 μl final volume of culture medium supplemented with 10% FBS containing test substances at 37° C. under 5% CO2. One experiment is performed, each concentration being issued from quadruplicate. Control cells are treated with corresponding vehicle alone. At the end of treatments, the cytotoxic activity is evaluated by a MTS assay. […] Like MTT, MTS is bioreduced by cells into a formazan product that is directly soluble in culture medium without processing, unlike MTT.\n(§2) At the end of the cells treatment, 40 μl of a 0.22 μm filtered freshly combined solution of MTS (20 ml at 2 mg/ml, Ref G1111A, Promega, Charbonnières, France) and PMS (1 ml at 0.92 mg/ml, Ref P9625, Sigma) in Dulbecco's Phosphate Buffered Saline (DPBS, Ref 17-513F, Cambrex), were added in each well. Culture plates were incubated for 2 h at 37° C. Absorbency (OD) will be measured at 490 nm in each well using VICTOR^3™ 1420 multilabeled counter (Wallac, PerkinElmer, Courtaboeuf, France)."}, "SK-BR-3 tumor cells": {"system": "SK-BR-3 tumor cells", "assay": "Cytotoxicity, MTS assay, SK-BR-3", "format": "cell-based", "conditions": "Homo sapiens, 72 hours", "procedure": "as §1, §2"}, "ErbB2": {"system": "ErbB2", "assay": "Degradation of HSP90 client protein ErbB2 in SK-BR3, Western blotting", "format": "cell-based", "conditions": "Homo sapiens; for EC50: read-out: EC50, degradation of ErbB2", "text": "Thus, after 18 hrs treatment with the compounds, the whole cell protein lysates were obtained, protein concentrations were normalized and the concentration of ErbB2 was quantified by Western blotting (C. Chavany et al J. Biol. Chem. 271:4974-4977 (1996))."}, "HCC1954 cells": {"system": "HCC1954 cells", "assay": "Antitumor activity, HCC1954 induced tumors in CB17/SCID mice", "format": "in vivo", "procedure": "The compounds of the invention were evaluated for antitumor activity in mice. Tumors were induced […] in healthy CB17/SCID mice by injecting HCC1954 cells into the right flank of 70 mice. Once the induced tumors were an average size of […], the mice were treated with compound a2-1 at 25 mg/kg, 50 mg/kg and 100 mg/kg. Controls of vehicle alone and Herceptin® at 10 mg/kg were utilized."}, "[1]": {"assay": "Maximum tolerated dose in healthy CB17/SCID mice", "format": "in vivo", "procedure": "Three healthy CB17/SCID mice were treated with compound 2a-1 at 25 mg/kg, 50 mg/kg and 100 mg/kg once daily for five consecutive days."}, "HER-2": {"system": "HER-2", "conditions": "HER-2 degradation assay; cited from earlier work"}, "panel of 24 kinase": {"system": "panel of 24 kinase", "assay": "Radiometric protein kinase assay (33PanQinase), panel of 24 kinases", "format": "biochemical, human", "conditions": "for inhibition in a panel of 24 kinase: at 10 μM", "text": "(§3) All protein kinases were expressed in Sf9 insect cells as human recombinant GST-fusion proteins or His-tagged proteins by means of the baculovirus expression system. Kinases were purified by affinity chromatography using either GSH-agarose (Sigma) or Ni-NTH-agarose (Qiagen). The purity of each kinase was checked by SDS-PAGE/silver staining and the identity of each kinase was verified by western blot analysis with kinase specific antibodies or by mass spectroscopy.\nA radiometric protein kinase assay (^33PanQinase® Activity Assay) was used for measuring the kinase activity of the 24 protein kinases.\n(§4) The assay for all enzymes contained 60 mM HEPES-NaOH, pH 7.5, 3 mM MgCl2, 3 mM MnCl2, 3 μM Na-orthovanadate, 1.2 mM DTT, 50 μg/ml PEG20000, 1 μM [γ-^33P]-ATP (approx. 5×10^05 cpm per well).\n(§5) The reaction cocktails were incubated at 30° C. for 80 minutes. The reaction was stopped with 50 μl of 2% (v/v) H3PO4, plates were aspirated and washed two times with 200 μl of 0.9% (w/v) NaCl or 200 μl H2O. Incorporation of ^33Pi was determined with a microplate scintillation counter (Microbeta Trilux, Wallac).\n(§6) The median value of the counts in column 1 (n=8) of each assay plate was defined as “low control”. This value reflects unspecific binding of radioactivity to the plate in the absence of a protein kinase but in the presence of the substrate. The median value of the counts in column 7 of each assay plate (n=8) was taken as the “high control”, i.e. full activity in the absence of any inhibitor. The difference between high and low control was taken as 100% activity.\n(§7) As part of the data evaluation the low control value from a particular plate was subtracted from the high control value as well as from all 80 “compound values” of the corresponding plate. The residual activity (in %) for each well of a particular plate was calculated by using the following formula: Res. Activity (%)=100×[(cpm of compound−low control)/(high control−low control)]"}, "VEGF-R2": {"target": "T1, VEGF-R2 (Homo sapiens, UniProt P35968)", "T1 construct": "host or cells: Sf9 insect cells (baculovirus)", "T1 sequence (P35968 20-1356)": "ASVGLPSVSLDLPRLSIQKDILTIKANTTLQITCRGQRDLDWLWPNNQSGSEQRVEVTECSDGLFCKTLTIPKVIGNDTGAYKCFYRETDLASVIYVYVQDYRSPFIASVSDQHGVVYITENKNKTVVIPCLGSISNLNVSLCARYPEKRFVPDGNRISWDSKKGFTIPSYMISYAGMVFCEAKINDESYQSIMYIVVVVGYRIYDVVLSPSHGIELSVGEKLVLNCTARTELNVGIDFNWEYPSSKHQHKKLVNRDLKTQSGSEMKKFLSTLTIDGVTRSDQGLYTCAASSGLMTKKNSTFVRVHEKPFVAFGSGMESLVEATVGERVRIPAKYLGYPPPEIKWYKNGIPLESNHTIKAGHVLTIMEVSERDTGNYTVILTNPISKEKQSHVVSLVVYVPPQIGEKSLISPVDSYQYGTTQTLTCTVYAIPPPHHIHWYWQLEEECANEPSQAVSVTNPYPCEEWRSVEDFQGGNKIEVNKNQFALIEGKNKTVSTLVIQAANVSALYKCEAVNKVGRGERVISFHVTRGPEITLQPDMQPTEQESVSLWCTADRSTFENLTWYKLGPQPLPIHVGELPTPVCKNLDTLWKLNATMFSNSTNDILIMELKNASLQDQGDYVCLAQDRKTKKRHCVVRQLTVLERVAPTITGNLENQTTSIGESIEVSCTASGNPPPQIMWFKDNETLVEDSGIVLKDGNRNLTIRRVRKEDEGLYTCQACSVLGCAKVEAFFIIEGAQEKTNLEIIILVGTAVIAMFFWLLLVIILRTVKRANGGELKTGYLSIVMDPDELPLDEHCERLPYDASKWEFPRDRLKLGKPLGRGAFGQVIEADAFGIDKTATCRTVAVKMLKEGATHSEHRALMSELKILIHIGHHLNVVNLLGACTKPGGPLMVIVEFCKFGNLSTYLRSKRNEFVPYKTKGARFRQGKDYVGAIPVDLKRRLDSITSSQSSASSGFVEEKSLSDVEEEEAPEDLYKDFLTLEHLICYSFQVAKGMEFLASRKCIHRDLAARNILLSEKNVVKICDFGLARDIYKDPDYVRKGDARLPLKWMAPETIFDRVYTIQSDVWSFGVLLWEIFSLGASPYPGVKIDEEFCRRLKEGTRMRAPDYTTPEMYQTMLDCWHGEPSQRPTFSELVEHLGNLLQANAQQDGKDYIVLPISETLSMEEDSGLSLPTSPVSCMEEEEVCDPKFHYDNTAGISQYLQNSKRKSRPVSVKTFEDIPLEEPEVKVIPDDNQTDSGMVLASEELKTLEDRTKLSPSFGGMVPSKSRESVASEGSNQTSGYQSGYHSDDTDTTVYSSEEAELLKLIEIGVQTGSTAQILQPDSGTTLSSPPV", "assay": "Radiometric protein kinase assay, VEGF-R2", "format": "biochemical", "conditions": "1 μM ATP; read-out: Inhibitory activity (IC50:μM) VEGF-R2", "text": "as §3\nA radiometric protein kinase assay (^33PanQinase® Activity Assay) was used for measuring the kinase activity of the 24 protein kinases. All kinase assays were performed in 96-well FlashPlates™ from Perkin Elmer (Boston, Mass., USA) in a 50 μl reaction volume. The reaction cocktail was pipetted in 4 steps in the following order: • 20 μl of assay buffer • 5 μl of ATP solution (in H2O) • 5 μl of test compound (in 10% DMSO) • 10 μl of substrate/10 […] of enzyme solution (premixed)\nas §4\nFor the 24 kinase assays, the following amounts of enzyme and substrate were used per well:\nas §5, §6, §7\nThe residual activities for each concentration and the compound IC50 values were calculated using Quattro Workflow V2.1.0.0 (Quattro Research GmbH, Munich, Germany; www.quattro-research.com). The model used was “Sigmoidal response (variable slope)” with parameters “top” fixed at 100% and “bottom” at 0%."}, "tumor xenograft models": {"system": "tumor xenograft models", "conditions": "in vivo; cited from earlier work"}, "[2]": {"conditions": "cited from earlier work"}, "HSP90 [3]": {"target": "T2, HSP90 (Homo sapiens, UniProt P07900)", "assay": "HSP90 affinity, competition assay with geldanamycin", "format": "binding"}, "HSP90 [4]": {"target": "T2, HSP90", "conditions": "reported; read-out: inhibitor of HSP90; cited from earlier work"}},
  "note": "Like-named read-outs stand apart in the source and are kept apart here.",
  "data": [
    {"smiles": "O=C1OCC/C=C/CC/C=C/C(=N/OCC(=O)N2CCCCC2)Cc2c(Cl)c(O)cc(O)c21", "note": "[2a-1]", "values": [
      {"measurement": "EC50", "setting": "HCC1954 tumor cells", "result": 320, "unit": "nM"},
      {"measurement": "EC50", "setting": "SK-BR-3 tumor cells", "result": 125, "unit": "nM"},
      {"measurement": "EC50", "setting": "ErbB2; SK-BR-3, SK-BR3, 18 hrs treatment, Western blotting", "result": 26, "unit": "nM"},
      {"measurement": "tumor size", "setting": "HCC1954 cells; 25 mg/kg, 50 mg/kg and 100 mg/kg", "result": "dose-dependent reduction in tumor size"},
      {"measurement": "tumor size compared with Herceptin® at 10 mg/kg", "setting": "HCC1954 cells; even at the 25 mg/kg dose for three weeks", "result": "superior to those obtained in mice treated with Herceptin®"},
      {"measurement": "re-growth of tumor after the last treatment", "setting": "HCC1954 cells; mouse, in vivo", "result": "did not occur for three to seven days"},
      {"measurement": "weight loss", "setting": "[1]; 25 mg/kg once daily for five consecutive days", "result": "did not show any weight loss"},
      {"measurement": "body weight loss", "setting": "[1]; 50 mg/kg once daily for five consecutive days", "result": "slight, but acceptable body weight loss"},
      {"measurement": "body weight loss", "setting": "[1]; 100 mg/kg once daily for five consecutive days", "result": "slight, but acceptable body weight loss"}
    ]},
    {"smiles": "O=C1OCC/C=C/CC/C=C/C(=N/OCC(=O)N2CCCCC2)Cc2cc(O)cc(O)c21", "note": "[2a-13]", "values": [
      {"measurement": "EC50", "setting": "HCC1954 tumor cells", "result": 220, "unit": "nM"},
      {"measurement": "EC50", "setting": "SK-BR-3 tumor cells", "result": 120, "unit": "nM"},
      {"measurement": "EC50", "setting": "ErbB2; SK-BR-3, 18 h", "result": 12, "unit": "nM"}
    ]},
    {"smiles": "CCCCn1c(Cc2cc(OC)c(OC)c(OC)c2)nc2c(N)ncnc21", "note": "[PU3]", "values": [
      {"measurement": "IC50", "setting": "HER-2", "result": 40000, "unit": "nM"}
    ]},
    {"smiles": "C[C@@H]1C[C@H]2O[C@@H]2/C=C\\C=C\\C(=O)Cc2c(Cl)c(O)cc(O)c2C(=O)O1", "note": "[Radicicol, radicicol]", "values": [
      {"measurement": "IC50 in panel of 24 kinase assays (blank cells; summary in words)", "setting": "panel of 24 kinase; a blank represents an IC50 > 50 μM", "result": "no inhibition"},
      {"measurement": "inhibition in a panel of 24 kinase", "setting": "panel of 24 kinase", "result": "no significant activity"},
      {"measurement": "IC50", "setting": "VEGF-R2", "result": 49, "unit": "µM"},
      {"measurement": "IC50", "setting": "ErbB2; SK-BR-3, 18 h, read-out: IC50, degradation of ErbB2", "result": 289, "unit": "nM"},
      {"measurement": "activity in tumor xenograft models", "setting": "tumor xenograft models", "result": "inactive"},
      {"measurement": "water solubility", "setting": "[2]", "result": "poorly water-soluble"}
    ]},
    {"smiles": "C[C@@H]1CC2O[C@@H]2CC/C=C/C(=O)Cc2c(Cl)c(O)cc(O)c2C(=O)O1", "note": "(stereo partly shown) [pochonin A]", "values": [
      {"measurement": "IC50", "setting": "HSP90 [3]", "result": 90, "unit": "nM"},
      {"measurement": "inhibition in a panel of 24 kinase", "setting": "panel of 24 kinase", "result": "no significant activity"},
      {"measurement": "IC50", "setting": "HSP90 [4]", "result": 90, "unit": "nM"}
    ]}
  ]
}
